From patent US9174966B2, “Crystalline forms of 6-(1H-imidazol-1-yl)-2-phenylquinazoline” (ROTTAPHARM S.P.A., priority 2009, dated 2015)
Values after ≈ are worked out from the molar mass of the structure shown. Counter-ions that a name gives are not always drawn. Like-named read-outs stand apart in the source and are kept apart here.

Assays:
[1] = Pharmacokinetics in rats, oral versus intravenous administration; type: in vivo; settings: for F (bioavailability): OS 10 mg/Kg compared with IV 5 mg/kg; for half-life: read-out: T½
Description: The samples are analysed by HPLC-MS to determine the content of 6-(1H-imidazol-1-yl)-2-phenylquinazoline, using diphenylhydramine hydrochloride as internal standard. The pharmacokinetic parameters measured are summarized hereinbelow: it is noted that, despite the fact that the polymorph under consideration is of low solubility, the bioavailability (F %) is entirely acceptable.
The pharmacokinetic parameters measured are summarized hereinbelow: it is noted that the salt under consideration has optimum bioavailability (F %). […]

[2] = Stability to mechanical stress (milling, XRPD); type: physicochemical; settings: Retsch MM 200 mill, 50 Hz, 5 min.
Description: 6-(1H-Imidazol-1-yl)-2-phenylquinazoline, polymorph A, was subjected to milling by means of a Retsch MM 200 mill, at 50 Hz for 5 min., and the product thus obtained was analysed by XRPD.
6-(1H-Imidazol-1-yl)-2-phenylquinazoline succinate form A, was subjected to milling by means of a Retsch MM 200 mill, at 50 Hz for 5 min., and the product thus obtained was subjected to XRPD analysis.
6-(1H-Imidazol-1-yl)-2-phenylquinazoline L-tartrate dihydrate, form A, was subjected to milling by means of a Retsch MM 200 mill, at 50 Hz for 5 min., and the product thus obtained was subjected to XRPD analysis.
6-(1H-Imidazol-1-yl)-2-phenylquinazoline maleate, form A, was subjected to milling by means of a Retsch MM 200 mill, at 50 Hz for 5 min., and the product thus obtained was subjected to XRPD analysis.

physchem = settings: 37 °C, pH 2, aqueous buffer, thermodynamic from solid
Description: A sample of 6-(1H-imidazol-1-yl)-2-phenylquinazoline, polymorph A (150 mg), is stirred in a phosphate buffer solution at pH 7.4 (8 mL), at 500 rpm, so as to obtain a suspension, for 24 hours at 37° C. The suspension is then filtered and the concentration of the dissolved product is measured by reading the UV absorbance at 260 nm. […] A sample of 6-(1H-imidazol-1-yl)-2-phenylquinazoline, polymorph A (250 mg), is stirred in a phosphate buffer solution at pH 2 (2 mL), at 500 rpm, so as to obtain a suspension, for 24 hours at 37° C. The suspension is then filtered and the concentration of the dissolved product is measured by reading the UV absorbance at 260 nm.
A sample of 6-(1H-imidazol-1-yl)-2-phenylquinazoline, form B, (50 mg), is stirred in a phosphate buffer solution at pH 7.4 (2 mL), at 500 rpm, so as to obtain a suspension, for 24 hours at 37° C. The suspension is then filtered and the concentration of the dissolved product is measured by reading the UV absorbance at 260 nm.
A sample of 6-(1H-imidazol-1-yl)-2-phenylquinazoline, form C (30 mg), is stirred in a phosphate buffer solution at pH 7.4 (2 mL), at 500 rpm, so as to obtain a suspension, for 24 hours at 37° C. The suspension is then filtered and the concentration of the dissolved product is measured by reading the UV absorbance at 260 nm. […]

[3] = Thermal stability of the crystalline form (XRPD)
[4] = Solubility in aqueous solution of NaCl 0.9% (UV absorbance at 260 nm); type: physicochemical; settings: aqueous solution of NaCl 0.9%, 37 °C, saline or isotonic, thermodynamic from solid, aqueous NaCl 0.9%, stirred 500 rpm, 24 hours at 37° C.
Description: The solubility is 0.6 mg/mL. […]
The sample of 6-(1H-imidazol-1-yl)-2-phenylquinazoline phosphate, form A, is stirred in an aqueous solution of NaCl 0.9%, at 500 rpm, so as to obtain a suspension (50 mg in 2 mL), for 24 hours at 37° C.
(§1) The sample of 6-(1H-imidazol-1-yl)-2-phenylquinazoline phosphate, form A, is stirred in an aqueous solution of NaCl 0.9%, at 500 rpm, so as to obtain a suspension (70 mg in 2 mL), for 24 hours at 37° C. […] The dissolution rate is measured by adding 2 mg of product to 40 mL of water at 37° C., stirring at 500 rpm, and measuring the absorbance at 260 nm every 0.05 min; the dissolution rate is found to be 1.9×10^−4 gr/min.

[5] = Dissolution rate in water at 37° C.; type: physicochemical; settings: 2 mg of product in 40 mL of water at 37° C., 500 rpm, absorbance at 260 nm
Description: as §1

[6] = Stability to moisture, DVS analysis (Differential Vapour Sorption); type: physicochemical; settings: 25° C.
Description: The sample placed on a microbalance is subjected, in a chamber of controlled humidity, at 25° C., to a cycle of hydration (increasing humidity, red line) and of dehydration (decreasing humidity, blue line).
The sample of 6-(1H-imidazol-1-yl)-2-phenylquinazoline succinate form A was subjected to DVS analysis (as described in Example 32).
The sample of 6-(1H-imidazol-1-yl)-2-phenylquinazoline L-tartrate dihydrate, form A, was subjected to DVS analysis.
The sample of 6-(1H-imidazol-1-yl)-2-phenylquinazoline maleate, form A, was subjected to DVS analysis.

[7] = Hygroscopicity noted for the isolated crystalline product; type: physicochemical; settings: as noted in the preparation example
[8] = BCS (Biopharmaceutical Classification System) classification; type: physicochemical; settings: high permeability, low solubility
Source text: To take these two factors into account, a classification of drug products was introduced, known as BCS (Biopharmaceutical Classification System) (G L Amidon et al., Pharm. Res. 1995, 12: 413-419). Since it is endowed with good permeability and low solubility, 6-(1H-imidazol-1-yl)-2-phenylquinazoline falls into class II (high permeability, low solubility) of the BCS system. For the drug products of this class, the solubility is fundamental in determining their absorption. The preparation of pharmaceutically acceptable salts generally represents a means for increasing the solubility of sparingly soluble products, and, in the case of products endowed with good permeability, is a suitable means for increasing their bioavailability.

[9] = IV, 5 mg/kg, dihydrochloride monohydrate
[10] = OS (oral), 10 mg/Kg, dihydrochloride monohydrate

c1ccc(-c2ncc3cc(-n4ccnc4)ccc3n2)cc1 [polymorph A, 6-(1H-imidazol-1-yl)-2-phenylquinazoline]
V ([1]; IV, 5 mg/kg): 1.28 L/kg
F (bioavailability) [1]: 50.3%
CL ([1]; OS (oral), 10 mg/Kg): 22 mL/min/kg
V ([1]; OS (oral), 10 mg/Kg): 1.60 L/kg
clearance ([1]; rat, blood, iv, 5 mg/kg): 21 mL/min/kg
half-life ([1]; rat, blood, iv, 5 mg/kg, IV, 5 mg/kg): 42.1 min
Tmax ([1]; rat, blood, po, 10 mg/kg, OS (oral), 10 mg/Kg, read-out: Tmax (converted)): 100 min
half-life ([1]; rat, blood, po, 10 mg/kg, OS (oral), 10 mg/Kg): 45.4 min
stability to milling [2]: without any contamination with other crystalline forms, and no appreciable formation of amorphous material
solubility at 24 h (physchem): 1.8 mg/mL (≈ 6.61 mM)
thermal stability of crystalline form ([3]; 40° C., RH 85%, 5 days (at least 5 days for polymorph A), XRPD): stable
thermal stability of crystalline form ([3]; 90° C., 12 hours (or at least 12 hours), XRPD): stable

c1ccc(-c2ncc3cc(-n4ccnc4)ccc3n2)cc1 [dihydrochloride monohydrate form A, 6-(1H-imidazol-1-yl)-2-phenylquinazoline dihydrochloride monohydrate]
solubility at 24 h [4]: 138 mg/mL
dissolution rate [5]: 2.17×10^−3 gr/min
CL [1, 9]: 24 mL/min/kg
T½ [1, 9]: 46.6 min
V [1, 9]: 1.26 L/kg
F (bioavailability) ([1]; dihydrochloride monohydrate): 90.0%
CL [1, 10]: 18 mL/min/kg
Tmax [1, 10]: 80 min
T½ [1, 10]: 59.9 min
V [1, 10]: 2.96 L/kg
stability to milling ([2]; dihydrochloride monohydrate): No increase in the amount of amorphous product present relative to the reference example, as well as no foreign signals attributable to other forms
hygroscopicity (DVS) ([6]; hydration/dehydration cycle): in the range 30-80% relative humidity (RH), the product is not particularly hygroscopic
water content (DVS) ([6]; range 30-80% relative humidity): about 5%
hygroscopicity of the isolated product [7]: non-hygroscopic
thermal stability of crystalline form ([3]; 40° C., RH 85%, 7 days, XRPD, dihydrochloride monohydrate): stable
time after which complete conversion into the monohydrochloride is noted ([3]; 90° C., VT-XRPD): 48 h
time after which formation of the monohydrochloride is noted ([3]; 90° C., VT-XRPD): 36 h
thermal stability of crystalline form ([3]; 90° C., several hours): stable

c1ccc(-c2ncc3cc(-n4ccnc4)ccc3n2)cc1 [6-(1H-imidazol-1-yl)-2-phenylquinazoline]
BCS class [8]: class II
